Results taken from patent publication US20010006697A1, “Composition and method for producing low cholesterol eggs” (priority 1997, published 2001).
“And” between values parts separate entries of the source, which are not always exact repeats. Identical values can stand only once. Like-named read-outs stand apart in the source and are kept apart here. Marks after values point to notes of the source that are not given here.

Legend:
[1] = test system: laying hens; experiment: Yolk cholesterol contents of eggs from statin-treated laying hens; format: in vivo, White Leghorn hens
Method: Agric. […] Hens were treated as described in Example 1. […] The eggs were hard-cooked, and the yolks were separated, weighed, and crumbled. […] Agric. […] Egg homogenate filtrates were analyzed for cholesterol as described in Rudel, L. L. and Morris, M. D., J. Lipid Res. 14:364-366 (1973).

[2] = test system: plasma VLDL particles; settings: day 35
[3] = test system: laying hens; experiment: Liver cholesterol content; settings: day 35
[4] = test system: plasma VLDL particles; settings: day 35; remark: listed apart in the source
[5] = test system: laying hens; settings: 0.03% or 0.06% of diet; day 35
[6] = test system: laying hens; settings: 0.03% or 0.06% of diet; day 35; remark: listed apart in the source
[7] = test system: apolipoprotein B (apoB) mRNA; experiment: Northern blot of liver mRNA: apoB; format: in vivo, White Leghorn hens; settings: normalized by 18S rRNA; day 35
From the text: Endocrinol. […] Endocrinol.

[8] = Liver weight of statin-treated laying hens; settings: day 35
[9] = test system: microsomal triglyceride transport protein (MTP) large subunit mRNA; settings: normalized by 18S rRNA; day 35
[10] = test system: laying hens; experiment: Egg production, egg weights and yolk weights of statin-treated laying hens; format: in vivo, White Leghorn hens
Method: Hens were treated as described in Example 1. Egg yolk was weighed as outlined in Example 2.

[11] = 0.06% of diet, week 5 (maximal reduction for simvastatin, lovastatin)
[12] = 0.03% of diet, Overall (weeks 1-5)
[13] = 0.06% of diet, Overall (weeks 1-5)

## CC[C@H](C)C(=O)O[C@H]1C[C@@H](C)C=C2C=C[C@H](C)[C@H](CC[C@@H]3C[C@@H](O)CC(=O)O3)[C@H]21 [Lovastatin]
[1]; 0.03% of diet, Week 0
  Yolk cholesterol content, mg cholesterol/g yolk: 11.0 ± 0.2^a mg cholesterol/g yolk
  Yolk cholesterol content, mg cholesterol/yolk: 195.7 ± 6.8^a mg cholesterol/yolk
[1]; 0.03% of diet, Week 1
  Yolk cholesterol content, mg cholesterol/g yolk: 10.7 ± 0.2^b mg cholesterol/g yolk
  Yolk cholesterol content, mg cholesterol/yolk: 192.2 ± 6.5^a mg cholesterol/yolk
[1]; 0.03% of diet, Week 2
  Yolk cholesterol content, mg cholesterol/g yolk: 11.1 ± 0.2^a,b mg cholesterol/g yolk
  Yolk cholesterol content, mg cholesterol/yolk: 193.8 ± 6.6^a mg cholesterol/yolk
[1]; 0.03% of diet, Week 3
  Yolk cholesterol content, mg cholesterol/g yolk: 10.8 ± 0.2^b mg cholesterol/g yolk
  Yolk cholesterol content, mg cholesterol/yolk: 192.3 ± 5.1^a mg cholesterol/yolk
[1]; 0.03% of diet, Week 4
  Yolk cholesterol content, mg cholesterol/g yolk: 10.9 ± 0.2^a,b mg cholesterol/g yolk
  Yolk cholesterol content, mg cholesterol/yolk: 193.9 ± 4.2^a mg cholesterol/yolk
[1]; 0.03% of diet, Week 5
  Yolk cholesterol content, mg cholesterol/g yolk: 10.8 ± 0.1^b mg cholesterol/g yolk
  Yolk cholesterol content, mg cholesterol/yolk: 193.6 ± 4.0^a,b mg cholesterol/yolk
[1]; 0.06% of diet, Week 0
  Yolk cholesterol content, mg cholesterol/g yolk: 10.9 ± 0.1^a mg cholesterol/g yolk
  Yolk cholesterol content, mg cholesterol/yolk: 197.8 ± 4.3^a mg cholesterol/yolk
[1]; 0.06% of diet, Week 1
  Yolk cholesterol content, mg cholesterol/g yolk: 10.7 ± 0.1^b mg cholesterol/g yolk
  Yolk cholesterol content, mg cholesterol/yolk: 185.5 ± 8.4^a,b mg cholesterol/yolk
[1]; 0.06% of diet, Week 2
  Yolk cholesterol content, mg cholesterol/g yolk: 10.8 ± 0.1^b,c mg cholesterol/g yolk
[1]; 0.06% of diet, Week 3
  Yolk cholesterol content, mg cholesterol/g yolk: 10.5 ± 0.1^b,c mg cholesterol/g yolk
  Yolk cholesterol content, mg cholesterol/yolk: 184.6 ± 5.1^a,b mg cholesterol/yolk
[1]; 0.06% of diet, Week 4
  Yolk cholesterol content, mg cholesterol/g yolk: 10.9 ± 0.2^a,b mg cholesterol/g yolk
  Yolk cholesterol content, mg cholesterol/yolk: 187.1 ± 7.2^a,b mg cholesterol/yolk
[1]; 0.06% of diet, Week 5
  Yolk cholesterol content, mg cholesterol/g yolk: 10.8 mg cholesterol/g yolk and 10.8 ± 0.1^b mg cholesterol/g yolk
  Yolk cholesterol content, mg cholesterol/yolk: 186.9 mg cholesterol/yolk and 186.9 ± 4.3^a,b mg cholesterol/yolk
[1]; [11]
  yolk cholesterol reduction from control on a per yolk (egg) basis: 7%
  yolk cholesterol reduction from control per g of yolk (mg/g basis): 7%
[2]; 0.03% of diet
  Plasma VLDL particle Diameter nm: 35.5 ± 0.1^a,b nm
[2]; 0.06% of diet
  Plasma VLDL particle Diameter nm: 34.8 ± 0.1^a,b nm
[3]; 0.03% of diet
  Liver Cholesterol mg/g liver: 3.0 ± 0.05^b,c mg/g liver
  Liver Cholesterol mg/liver: 95.7 ± 3.3^a mg/liver
[3]; 0.06% of diet
  Liver Cholesterol mg/g liver: 3.1 ± 0.07^b mg/g liver
  Liver Cholesterol mg/liver: 90.2 ± 3.6^a mg/liver
[4]; 0.03% of diet
  Plasma VLDL composition: EC (esterified cholesterol): 0.06 ± 0.01^a,b %
  Plasma VLDL composition: PC (phosphatidylcholine): 11.99 ± 0.18^b %
  Plasma VLDL composition: PE (phosphatidylethanolamine): 3.76 ± 0.33^a %
  Plasma VLDL composition: Protein: 17.37 ± 0.70^a %
  Plasma VLDL composition: SM (sphingomyelin): 1.08 ± 0.31^a %
  Plasma VLDL composition: TG (triglyceride): 62.78 ± 1.01^a %
  Plasma VLDL composition: UC (unesterified cholesterol): 2.94 ± 0.11^a %
[4]; 0.06% of diet
  Plasma VLDL composition: EC (esterified cholesterol): 0.08 ± 0.02^a,b %
  Plasma VLDL composition: PC (phosphatidylcholine): 12.07 ± 0.82^b %
  Plasma VLDL composition: PE (phosphatidylethanolamine): 3.46 ± 0.93^a %
  Plasma VLDL composition: Protein: 19.96 ± 1.32^a %
  Plasma VLDL composition: SM (sphingomyelin): 0.66 ± 0.23^a %
  Plasma VLDL composition: TG (triglyceride): 60.74 ± 1.22^a %
  Plasma VLDL composition: UC (unesterified cholesterol): 3.03 ± 0.34^a %
[5]
  effect on plasma total cholesterol (plasma lipid variables): did not significantly affect
[6]
  effect on plasma triglycerides (plasma lipid variables): did not significantly affect
[7]
  hepatic apoB mRNA, linear contrasts (P≦0.05): control>lovastatin
[8]; 0.03% of diet
  Liver Weight g: 31.4 ± 1.4^b g
  Liver Weight g/100 g BW: 1.81 ± 0.09^a,b g/100 g BW
[8]; 0.06% of diet
  Liver Weight g: 28.8 ± 0.9^b,c g
  Liver Weight g/100 g BW: 1.76 ± 0.05^b g/100 g BW
[9]
  hepatic MTP large subunit mRNA, linear contrasts (P≦0.05): lovastatin>atorvastatin
[10]; [12]
  Egg weight, g: 65.0 ± 1.4^a (155) g
  Hen-day egg production, %: 88.6 ± 2.4^a (155) %
  Yolk weight, g: 17.7 ± 0.2^a (25) g
[10]; 0.03% of diet, Week 1
  Egg weight, g: 64.9 ± 0.7^a g
  Hen-day egg production, %: 91.4 ± 1.2^a %
  Yolk weight, g: 17.9 ± 0.7^a g
[10]; 0.03% of diet, Week 2
  Egg weight, g: 64.3 ± 0.8^a,b g
  Hen-day egg production, %: 88.6 ± 1.0^a %
  Yolk weight, g: 17.4 ± 0.8^a g
[10]; 0.03% of diet, Week 3
  Egg weight, g: 65.1 ± 0.7^a g
  Hen-day egg production, %: 85.7 ± 1.0^a %
  Yolk weight, g: 17.8 ± 0.5^a g
[10]; 0.03% of diet, Week 4
  Egg weight, g: 65.8 ± 0.6^a g
  Hen-day egg production, %: 88.6 ± 1.8^a %
  Yolk weight, g: 17.8 ± 0.4^a g
[10]; 0.03% of diet, Week 5
  Egg weight, g: 64.7 ± 0.7^a g
  Hen-day egg production, %: 88.6 ± 1.0^a %
  Yolk weight, g: 17.8 ± 0.5^a g
[10]; 0.03% or 0.06% of diet, P>0.05
  effect on production variables (egg production, egg weight, yolk weight): did not affect
[10]; [13]
  Egg weight, g: 63.8 ± 1.8^a (155) g
  Hen-day egg production, %: 88.6 ± 2.9^a (155) %
  Yolk weight, g: 17.4 ± 0.3^a (25) g
[10]; 0.06% of diet, Week 1
  Egg weight, g: 62.6 ± 1.9^a g
  Hen-day egg production, %: 88.6 ± 1.0^a,b %
  Yolk weight, g: 17.4 ± 1.0^a g
[10]; 0.06% of diet, Week 2
  Egg weight, g: 64.0 ± 0.7^a,b g
  Hen-day egg production, %: 85.7 ± 1.5^a,b %
  Yolk weight, g: 17.3 ± 0.7^a g
[10]; 0.06% of diet, Week 3
  Egg weight, g: 65.3 ± 1.1^a g
  Hen-day egg production, %: 88.6 ± 1.0^a %
  Yolk weight, g: 17.7 ± 0.6^a g
[10]; 0.06% of diet, Week 4
  Egg weight, g: 63.3 ± 0.8^b,c g
  Hen-day egg production, %: 88.6 ± 1.8^a %
  Yolk weight, g: 17.2 ± 0.9^a,b g
[10]; 0.06% of diet, Week 5
  Egg weight, g: 62.9 ± 0.8^a,b g
  Hen-day egg production, %: 91.4 ± 1.2^a %
  Yolk weight, g: 17.3 ± 0.7^a g
